# Where two headings read alike, the source gives them in different places. Numbered stars: 1 amine (or outer) side, 2 acyl side, 3 side chain; on linkers, the order of the positions; unused ones are H or OH. Bridge positions count the residues as written; N and C are the ends. Square brackets hold non-standard residues; d marks the D form. Peptide text beside a SMILES is read from it. * marks the point of attachment. Acetyl(1-DOTA-4-piperidyl) = O=C(O)CN1CCN(CC(=O)O)CCN(CC(=O)N2CCC(CC(=O)*)CC2)CCN(CC(=O)O)CC1; DOTA = O=C(O)CN1CCN(CC(=O)O)CCN(CC(=O)*)CCN(CC(=O)O)CC1; Phe(4-Cl) = N[C@@H](Cc1ccc(Cl)cc1)C(=O)O; Arg(Me) = CNC(=N)NCCC[C@H](N)C(=O)O; Ethylenediamine = C(CN[*:2])N[*:1]; NMeT = CN[C@H](C(=O)O)[C@@H](C)O; X1 = O=C(CC1CCN([*:1])CC1)[*:2]; Cit = NC(=O)NCCC[C@H](N)C(=O)O; Lys(Me) = CNCCCC[C@H](N)C(=O)O; Tle = CC(C)(C)[C@H](N)C(=O)O; 4Amb = NCc1ccc(C(=O)O)cc1; Hexanoyl = CCCCCC(=O)*; Aib = CC(C)(N)C(=O)O
# Legend:
# [1] = target: T1, Fc-fusion protein of human PSMA (hPSMA-Fc) (Homo sapiens, UniProt Q04609); experiment: Surface plasmon resonance assay (Biacore T200, single cycle kinetic); format: binding; details: hPSMA-Fc, 25° C., read-out: pKD CAT (converted)
# T1 construct: purchased Acro Biosystems PSA-H5264
# T1 sequence (Q04609 44-750 limits assumed): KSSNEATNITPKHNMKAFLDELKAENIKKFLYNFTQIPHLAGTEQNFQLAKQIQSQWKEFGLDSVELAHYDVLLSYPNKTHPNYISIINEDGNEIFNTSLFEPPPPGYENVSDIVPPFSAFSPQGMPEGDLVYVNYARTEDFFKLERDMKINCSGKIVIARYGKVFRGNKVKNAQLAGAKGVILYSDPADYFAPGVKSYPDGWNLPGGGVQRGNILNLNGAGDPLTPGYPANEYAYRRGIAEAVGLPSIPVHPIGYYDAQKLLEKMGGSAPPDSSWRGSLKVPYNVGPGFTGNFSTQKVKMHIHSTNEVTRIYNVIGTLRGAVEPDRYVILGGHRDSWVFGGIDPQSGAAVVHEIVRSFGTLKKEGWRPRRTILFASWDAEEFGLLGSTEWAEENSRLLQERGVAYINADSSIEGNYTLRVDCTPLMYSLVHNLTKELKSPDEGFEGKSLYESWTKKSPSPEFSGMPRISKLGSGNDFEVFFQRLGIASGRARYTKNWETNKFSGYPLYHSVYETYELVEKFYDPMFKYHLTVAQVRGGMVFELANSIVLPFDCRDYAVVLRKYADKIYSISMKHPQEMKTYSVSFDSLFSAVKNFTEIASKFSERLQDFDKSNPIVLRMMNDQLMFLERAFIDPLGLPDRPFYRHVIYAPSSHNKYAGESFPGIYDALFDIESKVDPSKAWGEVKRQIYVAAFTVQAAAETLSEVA
# How it was run: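 KD, expressed as pKD, came from 1:1 Langmuir fits of reference- and buffer-blank-subtracted SPR data. The runs were single-cycle kinetics at 25° C in HBST/0.1% DMSO over human PSMA-Fc, captured to ~1000 RU on a peptide-coated CM5 surface and regenerated with 10 mM glycine pH 1.5.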
# [2] = target: T2, PSMA-expressing C4-2 cells (Homo sapiens, UniProt Q04609); experiment: FACS binding assay (competition with 50 nM PSM-0183); details: read-out: pIC50 [C4-2] CAT (converted)
# T2 construct: PSMA-expressing C4-2 cells (ATCC, Cat. No. CRL-3314) were cultured in RPMI-1640; host or cells: C4-2 cells
# T2 sequence (Q04609 whole entry): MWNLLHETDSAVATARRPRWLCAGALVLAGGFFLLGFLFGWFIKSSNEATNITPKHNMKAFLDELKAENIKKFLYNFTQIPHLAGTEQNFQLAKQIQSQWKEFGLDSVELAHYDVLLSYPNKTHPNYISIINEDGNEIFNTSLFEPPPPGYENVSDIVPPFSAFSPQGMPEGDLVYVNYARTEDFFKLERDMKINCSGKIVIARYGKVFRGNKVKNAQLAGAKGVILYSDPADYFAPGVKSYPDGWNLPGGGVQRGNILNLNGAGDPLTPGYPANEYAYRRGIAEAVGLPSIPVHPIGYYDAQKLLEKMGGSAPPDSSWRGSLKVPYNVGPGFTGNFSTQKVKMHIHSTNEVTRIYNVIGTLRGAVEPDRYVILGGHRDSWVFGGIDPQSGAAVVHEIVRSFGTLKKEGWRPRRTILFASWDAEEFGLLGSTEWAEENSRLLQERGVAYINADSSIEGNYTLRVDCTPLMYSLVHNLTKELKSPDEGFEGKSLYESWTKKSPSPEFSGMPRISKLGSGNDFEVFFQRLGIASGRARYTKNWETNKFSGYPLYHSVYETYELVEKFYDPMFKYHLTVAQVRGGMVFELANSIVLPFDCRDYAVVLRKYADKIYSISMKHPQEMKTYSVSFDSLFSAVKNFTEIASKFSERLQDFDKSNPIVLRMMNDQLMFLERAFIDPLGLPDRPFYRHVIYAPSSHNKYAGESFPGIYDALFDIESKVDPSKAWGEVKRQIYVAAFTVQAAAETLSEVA
# How it was run: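 Competition format: fluorescent tracer PSM-0183 (50 nM) displaced from PSMA on C4-2 cells by a test compound titration over 1 h at 4 °C. Bound tracer was quantified as flow-cytometric AF488 median fluorescence after washing. Four-parameter logistic fits of MFI data gave IC50 and pIC50.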
# PC3-PIP tumor model = test system: PC3-PIP tumor model; parameters: species or system mice; details: mouse, in vivo
# Text: Radioactively labeled compounds can be detected by imaging methods such as SPECT and PET. Furthermore, the data acquired by such techniques can be confirmed by direct measurement of radioactivity contained in the individual organs prepared from an animal injected with a radioactively labeled compound of the disclosure. Thus, the biodistribution (the measurement of radioactivity in individual organs) of a radioactively labeled compound can be determined and analyzed. […] All animal experiments were conducted in compliance with the German animal protection laws. Male swiss or NMRI nude mice (6-8 weeks old, Janvier Labs, France) were inoculated with 5×10^6 PC3-PIP cells in the right shoulder. For selected compounds an additional model was used, here male NMRI nude mice (6-8 weeks old, Janvier Labs, France) were inoculated with 5×10^6 or/1×10^7 C4-2 cells in the right shoulder. When tumors reached an appropriate size, the mice received ˜30 MBq ^111In-labeled compounds of the disclosure (diluted to 100 μL with PBS) administered intravenously via the tail vein. Images were obtained on a NanoSPECT/computed tomography system (Mediso Medical Imaging Systems, Budapest, Hungary) using exemplarily the following acquisition and reconstruction parameters (Table 10). [table] Imaging data were saved as DICOM files and analysed using VivoQuant™ software (Invicro, Boston, USA). In brief, regions of interest (ROIs) were drawn based on computed tomography images for the relevant organs and tissue regions such as heart (estimate of blood pool, bps), kidney, and tumor. The resulting numeric data expressed as a percentage of injected dose per gram of tissue (% ID/g) are presented in FIGS. 3(a)-3(ii) for the PC3-PIP model and FIGS. 4(a)-4(r) for the C4-2 model. Bars show mean % ID/g values of two to three animals per time point. Error bars indicate the value range (minimum and maximum values).
# [3] = pKD category for PSMA SPR activity assay
# [4] = pIC50 category of FACS binding, C4-2 cells
Structure (SMILES),"Kd ([1]; PSMA SPR assay, pKD category)","IC50 ([2]; FACS binding, PSMA-expressing C4-2 cells, pIC50 category)",AUC ratio [T/K] (PC3-PIP tumor model),Tumor AUC (PC3-PIP tumor model),"Kd [1, 3]","IC50 [2, 4]","Kd ([1]; SPR, single cycle kinetic, category)","IC50 ([2]; FACS binding, C4-2 cells, competition with 50 nM PSM-0183, category)"
"CC(C)(NC(=O)c1ccc(CNC(=O)CN2CCN(CC(=O)O)CCN(CC(=O)O)CCN(CC(=O)O)CC2)cc1)C(=O)N[C@@H](Cc1ccc(Cl)cc1)C(=O)N[C@H]1CSSC[C@@H](C(=O)N[C@H](C(=O)NCCN)C(C)(C)C)NC(=O)[C@H](CC(N)=O)NC(=O)C(C)(C)NC(=O)[C@H](CCCNC(=N)N)NC(=O)[C@H](CCCCN)NC1=O [PSM-0273, DOTA-Pamb-Aib-Pcf-[Cys-Lys-Arg-Aib-Asn-Cys]-Tle-en] ({DOTA-4Amb}-[Aib][Phe(4-Cl)]CKR[Aib]NC[Tle]-Ethylenediamine; disulfide 3-8)",< 12.6 nM,< 200 nM,0.21,110 % ID/g*h,–,–,–,–
"CC(C)[C@H](NC(=O)[C@@H]1CSSC[C@H](NC(=O)[C@H](Cc2ccc(Cl)cc2)NC(=O)C(C)(C)NC(=O)[C@@H](NC(=O)CC2CCN(C(=O)CN3CCN(CC(=O)O)CCN(CC(=O)O)CCN(CC(=O)O)CC3)CC2)[C@@H](C)O)C(=O)N[C@@H](CCCCN)C(=O)N[C@@H](CCCNC(=N)N)C(=O)NC(C)(C)C(=O)N[C@@H](CC(N)=O)C(=O)N1)C(=O)N(C)[C@H](C(N)=O)[C@@H](C)O [PSM-0377, DOTA-Cmp-Thr-Aib-Pcf-[Cys-Lys-Arg-Aib-Asn-Cys]-Val-Nmt-NH2] ({DOTA}-[X1]T[Aib][Phe(4-Cl)]CKR[Aib]NCV[NMeT]-NH2; disulfide 5-10)",–,–,1.1,160 % ID/g*h,< 12.6 nM,< 200 nM,–,–
"CCCCCC(=O)N[C@H](C(=O)NC(C)(C)C(=O)N[C@@H](Cc1ccc(Cl)cc1)C(=O)N[C@H]1CSSC[C@@H](C(=O)N[C@H](C(=O)N[C@H](C(=O)N[C@H](CCCCNC(=O)CC2CCN(C(=O)CN3CCN(CC(=O)O)CCN(CC(=O)O)CCN(CC(=O)O)CC3)CC2)C(N)=O)[C@@H](C)O)C(C)(C)C)NC(=O)[C@H](CC(N)=O)NC(=O)C(C)(C)NC(=O)[C@H](CCCNC(N)=O)NC(=O)[C@H](CCCCN)NC1=O)[C@@H](C)O [PSM-0239, Hex-Thr-Aib-Pcf-[Cys-Lys-Cit-Aib-Asn-Cys]-Tle-Thr-lys(DOTA-Cmp)-NH2] (Hexanoyl-T[Aib][Phe(4-Cl)]CK[Cit][Aib]NC[Tle]T[dK](Acetyl(1-DOTA-4-piperidyl))-NH2; disulfide 4-9)",–,–,1.2,210 % ID/g*h,–,–,< 12.6 nM,< 200 nM

# Results, then the compound that gave them:
"Kd ([1]; PSMA SPR assay, pKD category)","IC50 ([2]; FACS binding, PSMA-expressing C4-2 cells, pIC50 category)",AUC ratio [T/K] (PC3-PIP tumor model),Tumor AUC (PC3-PIP tumor model),"Kd [1, 3]","IC50 [2, 4]","Kd ([1]; SPR, single cycle kinetic, category)","IC50 ([2]; FACS binding, C4-2 cells, competition with 50 nM PSM-0183, category)",Structure (SMILES)
–,–,2.1,180 % ID/g*h,< 12.6 nM,< 200 nM,–,–,"C[C@@H](O)[C@H](NC(=O)[C@@H](NC(=O)[C@@H]1CSSC[C@H](NC(=O)[C@H](Cc2ccccc2)NC(=O)C(C)(C)NC(=O)[C@@H](NC(=O)CC2CCN(C(=O)CN3CCN(CC(=O)O)CCN(CC(=O)O)CCN(CC(=O)O)CC3)CC2)[C@@H](C)O)C(=O)N[C@@H](CCCCN)C(=O)N[C@@H](CCCNC(=N)N)C(=O)NC(C)(C)C(=O)N[C@@H](CC(N)=O)C(=O)N1)C(C)(C)C)C(N)=O [PSM-0492, DOTA-Cmp-Thr-Aib-Phe-[Cys-Lys-Arg-Aib-Asn-Cys]-Tle-Thr-NH2] ({DOTA}-[X1]T[Aib]FCKR[Aib]NC[Tle]T-NH2; disulfide 5-10)"
–,–,2.6,130 % ID/g*h,< 12.6 nM,< 200 nM,–,–,"CNCCCC[C@@H]1NC(=O)[C@@H](NC(=O)[C@H](Cc2ccc(Cl)cc2)NC(=O)C(C)(C)NC(C)=O)CSSC[C@@H](C(=O)N[C@H](C(=O)NCCNC(=O)CN2CCN(CC(=O)O)CCN(CC(=O)O)CCN(CC(=O)O)CC2)C(C)(C)C)NC(=O)[C@H](CC(N)=O)NC(=O)C(C)(C)NC(=O)[C@H](CCCNC(=N)NC)NC1=O [PSM-0481, Ac-Aib-Pcf-[Cys-Lys(Me)-Arg(Me)-Aib-Asn-Cys]-Tle-en-DOTA] (Ac-[Aib][Phe(4-Cl)]C[Lys(Me)][Arg(Me)][Aib]NC[Tle]-{Ethylenediamine-DOTA}; disulfide 3-8)"
